{
  "source": "patent US20090088483A1",
  "about": "“AQUEOUS SUSPENSIONS OR DISPERSIONS OF INORGANIC PIGMENTS CONTAINING A MIXTURE CONSISTING OF DIALDEHYDES AND FORMALDEHYDE CLEAVERS” (priority 2005, published 2009)",
  "key": {"[1]": {"settings": "cited from earlier work"}, "[2]": {"system": "microbe spectrum of a microbially contaminated slurry", "assay": "quantitative test of microbial count reduction in a microbially contaminated slurry", "assay_type": "cell-based", "set-up": "unit not given here", "settings": "PCC slurry", "method": "Here, the quantitative test was carried out to determine how rapidly (1 hour to 7 days) the stated amounts of active substance reduce the microbial count of a microbially contaminated slurry."}, "[3]": {"system": "microbially contaminated (alkaline) slurry", "settings": "cited from earlier work"}},
  "data": [
    {"smiles": "OCOCCOCO", "note": "[EDDM, (ethylenedioxy)dimethanol]", "values": [
      {"measurement": "decline in active substance at elevated temperatures", "setting": "[1]; 50-80° C., over a period of a few days, alkaline pH", "value": "no significant decline"},
      {"measurement": "microbial count", "setting": "[2]; 100 ppm EDDM, 1 hour", "value": "1.6 * 10^5"},
      {"measurement": "microbial count", "setting": "[2]; 100 ppm EDDM, 2 hours", "value": "1.7 * 10^5"},
      {"measurement": "microbial count", "setting": "[2]; 100 ppm EDDM, 3 hours", "value": "1.6 * 10^5"},
      {"measurement": "microbial count", "setting": "[2]; 100 ppm EDDM, 24 hours", "value": "3.4 * 10^4"},
      {"measurement": "microbial count", "setting": "[2]; 100 ppm EDDM, 3 days", "value": "3.3 * 10^4"},
      {"measurement": "microbial count", "setting": "[2]; 100 ppm EDDM, 7 days", "value": "5.6 * 10^3"},
      {"measurement": "microbial count", "setting": "[2]; 200 ppm EDDM, 1 hour", "value": "1.6 * 10^5"},
      {"measurement": "microbial count", "setting": "[2]; 200 ppm EDDM, 2 hours", "value": "1.1 * 10^5"},
      {"measurement": "microbial count", "setting": "[2]; 200 ppm EDDM, 3 hours", "value": "1.2 * 10^5"},
      {"measurement": "microbial count", "setting": "[2]; 200 ppm EDDM, 24 hours", "value": "2.9 * 10^4"},
      {"measurement": "microbial count", "setting": "[2]; 200 ppm EDDM, 3 days", "value": "2.3 * 10^4"},
      {"measurement": "microbial count", "setting": "[2]; 200 ppm EDDM, 7 days", "value": "1.7 * 10^3"}
    ]},
    {"smiles": "O=CCCCC=O", "note": "[GDA, glutaraldehyde]", "values": [
      {"measurement": "time to sanitize a microbially contaminated (alkaline) slurry", "setting": "[3]", "value": "1 to 4", "unit": "h"},
      {"measurement": "degradation of active substance in the slurry", "setting": "[1]; in the slurry after a few days", "value": "completely degraded"},
      {"measurement": "microbial count", "setting": "[2]; 10 ppm GDA, 1 hour", "value": "1.2 * 10^5"},
      {"measurement": "microbial count", "setting": "[2]; 10 ppm GDA, 2 hours", "value": "1.3 * 10^4"},
      {"measurement": "microbial count", "setting": "[2]; 10 ppm GDA, 3 hours", "value": "2.6 * 10^3"},
      {"measurement": "microbial count", "setting": "[2]; 10 ppm GDA, 24 hours", "value": "<100"},
      {"measurement": "microbial count", "setting": "[2]; 10 ppm GDA, 3 days", "value": "4.7 * 10^2"},
      {"measurement": "microbial count", "setting": "[2]; 10 ppm GDA, 7 days", "value": "3.5 * 10^5"},
      {"measurement": "microbial count", "setting": "[2]; 20 ppm GDA, 1 hour", "value": "2.2 * 10^3"},
      {"measurement": "microbial count", "setting": "[2]; 20 ppm GDA, 2 hours", "value": "3.0 * 10^2"},
      {"measurement": "microbial count", "setting": "[2]; 20 ppm GDA, 3 hours", "value": "<100"},
      {"measurement": "microbial count", "setting": "[2]; 20 ppm GDA, 24 hours", "value": "<100"},
      {"measurement": "microbial count", "setting": "[2]; 20 ppm GDA, 3 days", "value": "<100"},
      {"measurement": "microbial count", "setting": "[2]; 20 ppm GDA, 7 days", "value": "1.7 * 10^3"}
    ]}
  ]
}
